Assay: recombinant UMI read abundance after kanamycin selection (control-corrected) (log10(CPM+1)); higher = more efficient recombination; extreme values may be limits of the assay; sequences stand for … in AGTGCAGAGAAAATCGGCCAGTTTTCTCTGCCTGCAGTCCGCATGCCGTGGGACCCCTTGGGTTCTAACCTGTTGCCTAGATTTATGCAGCGGACTGCCTTTCTCCCAAAGTGATAAACCGG…AGGTTGGTTTCACT; site = the 11-nt donor
In short: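 After plating on IPTG (0.07 mM) plus kanamycin, or unselected, in two replicates, recombinant UMIs were PCR-amplified across the donor–target junction and sequenced. The cells were Escherichia coli co-electroporated with a UMI-tagged donor and donor-binding-loop pair library and a target plasmid with a fixed target and T7-inducible IS621 bridge recombinase. Values are log10(CPM+1), with CPM averaged over replicates and scaled by control-derived factors.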
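Note: IS621 bridge recombinase in Escherichia coli cells against a fixed T5 target plasmid.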

| Sequence | recombinant UMI read abundance (log10) |
| --- | --- |
| CATTGAGCATGGACCGGTTTTCCCGGTAATCCGTATTTGTA (site CATTGAGCTTA) | 2.06 |
| CATTGCCCATGGACCGGTTTTCCCGGTAATCCGTATTTGAC (site CATTGCCCTGT) | 0.844 |
| CATTTGGCATGGACCGGTTTTCCCGGTAATCCGTATTTGCT (site CATTTGGCTAG) | 0 |
| CATTTGGCATGGACCGGTTTTCCCGGTAATCCGTATTTGCT (site CCTTTGGCTAG) | 0 |
| CATTTGGCATGGACCGGTTTTCCCGGTAATCCGTATTTGCT (site CGTTTGGCTAG) | 0 |
| CATTTGGCATGGACCGGTTTTCCCGGTAATCCGTATTTGCT (site CTTTTGGCTAG) | 0.00821 |
| CATTTGGCATGGACCGGTTTTCCCGGTAATCCGTATTTGGA (site CAATTGGCTTC) | 0.313 |
| CATTTGGCATGGACCGGTTTTCCCGGTAATCCGTATTTGGA (site CACTTGGCTTC) | 0.438 |
| CATTTGGCATGGACCGGTTTTCCCGGTAATCCGTATTTGGA (site CAGTTGGCTTC) | 0.466 |
| CATTTGGCATGGACCGGTTTTCCCGGTAATCCGTATTTGGA (site CATTTGGCTTC) | 0.328 |
| CCAAAAGCATGGACCGGTTTTCCCGGTAATCCGTATTTGAT (site CCAAAAGCTAT) | 1.34 |
| CCAAAAGCATGGACCGGTTTTCCCGGTAATCCGTATTTGAT (site CCCAAAGCTAT) | 0 |
| CCAAAAGCATGGACCGGTTTTCCCGGTAATCCGTATTTGAT (site CCGAAAGCTAT) | 0 |
| CCAAAAGCATGGACCGGTTTTCCCGGTAATCCGTATTTGAT (site CCTAAAGCTAT) | 0 |
| CCAAAGACATGGACCGGTTTTCCCGGTAATCCGTATTTGCA (site CCAAAGACTTG) | 2.26 |
| CCAACTTCATGGACCGGTTTTCCCGGTAATCCGTATTTGAT (site CCAACTTCTAT) | 0 |
| CCAATATCATGGACCGGTTTTCCCGGTAATCCGTATTTGAG (site CCAATATCTCT) | 1.21 |
| CCAATCACATGGACCGGTTTTCCCGGTAATCCGTATTTGGG (site CCAATCACTCC) | 0.336 |
| CCAATTGCATGGACCGGTTTTCCCGGTAATCCGTATTTGAG (site CCAATTGCTCT) | 0.865 |
| CCACAGTCATGGACCGGTTTTCCCGGTAATCCGTATTTGTG (site CCACAGTCTCA) | 1.93 |
| CCACATCCATGGACCGGTTTTCCCGGTAATCCGTATTTGAC (site ACACATCCTGT) | 0 |
| CCACATCCATGGACCGGTTTTCCCGGTAATCCGTATTTGAC (site CCACATCCTGT) | 0 |
| CCACATCCATGGACCGGTTTTCCCGGTAATCCGTATTTGAC (site GCACATCCTGT) | 0 |
| CCACATCCATGGACCGGTTTTCCCGGTAATCCGTATTTGAC (site TCACATCCTGT) | 0 |
| CCACGTGCATGGACCGGTTTTCCCGGTAATCCGTATTTGAT (site CCAAGTGCTAT) | 0.0041 |

| Sequence | recombinant UMI read abundance (log10) |
| --- | --- |
| CCACGTGCATGGACCGGTTTTCCCGGTAATCCGTATTTGAT (site CCACGTGCTAT) | 0.871 |
| CCACGTGCATGGACCGGTTTTCCCGGTAATCCGTATTTGAT (site CCAGGTGCTAT) | 0.0128 |
| CCACGTGCATGGACCGGTTTTCCCGGTAATCCGTATTTGAT (site CCATGTGCTAT) | 0.0143 |
| CCAGATGCATGGACCGGTTTTCCCGGTAATCCGTATTTGAT (site CCAGATGCTAT) | 1.26 |
| CCAGATGCATGGACCGGTTTTCCCGGTAATCCGTATTTGAT (site CCAGCTGCTAT) | 0.00516 |
| CCAGATGCATGGACCGGTTTTCCCGGTAATCCGTATTTGAT (site CCAGGTGCTAT) | 0.261 |
| CCAGATGCATGGACCGGTTTTCCCGGTAATCCGTATTTGAT (site CCAGTTGCTAT) | 0.00471 |
| CCAGCCCCATGGACCGGTTTTCCCGGTAATCCGTATTTGCC (site CCAGCCCCTGG) | 0.451 |
| CCAGGATCATGGACCGGTTTTCCCGGTAATCCGTATTTGCA (site ACAGTATCTTG) | 0 |
| CCAGGATCATGGACCGGTTTTCCCGGTAATCCGTATTTGCA (site CCAGGATCTTG) | 0.424 |
| CCAGGTGCATGGACCGGTTTTCCCGGTAATCCGTATTTGAT (site ACAGGTGCTAT) | 0.0184 |
| CCAGGTGCATGGACCGGTTTTCCCGGTAATCCGTATTTGAT (site CAAGGTGCTAT) | 0.441 |
| CCAGGTGCATGGACCGGTTTTCCCGGTAATCCGTATTTGAT (site CCAAGTGCTAT) | 1.24 |
| CCAGGTGCATGGACCGGTTTTCCCGGTAATCCGTATTTGAT (site CCACGTGCTAT) | 0.497 |
| CCAGGTGCATGGACCGGTTTTCCCGGTAATCCGTATTTGAT (site CCAGATGCTAT) | 1.74 |
| CCAGGTGCATGGACCGGTTTTCCCGGTAATCCGTATTTGAT (site CCAGCTGCTAT) | 0.00488 |
| CCAGGTGCATGGACCGGTTTTCCCGGTAATCCGTATTTGAT (site CCAGGAGCTAT) | 0.984 |
| CCAGGTGCATGGACCGGTTTTCCCGGTAATCCGTATTTGAT (site CCAGGCGCTAT) | 0.436 |
| CCAGGTGCATGGACCGGTTTTCCCGGTAATCCGTATTTGAT (site CCAGGGGCTAT) | 1.32 |
| CCAGGTGCATGGACCGGTTTTCCCGGTAATCCGTATTTGAT (site CCAGGTACTAT) | 0.835 |
| CCAGGTGCATGGACCGGTTTTCCCGGTAATCCGTATTTGAT (site CCAGGTCCTAT) | 0 |
| CCAGGTGCATGGACCGGTTTTCCCGGTAATCCGTATTTGAT (site CCAGGTGCTAA) | 0.0192 |
| CCAGGTGCATGGACCGGTTTTCCCGGTAATCCGTATTTGAT (site CCAGGTGCTAC) | 0.227 |
| CCAGGTGCATGGACCGGTTTTCCCGGTAATCCGTATTTGAT (site CCAGGTGCTAG) | 0 |
| CCAGGTGCATGGACCGGTTTTCCCGGTAATCCGTATTTGAT (site CCAGGTGCTAT) | 1.32 |

| Sequence | recombinant UMI read abundance (log10) |
| --- | --- |
| CCAGGTGCATGGACCGGTTTTCCCGGTAATCCGTATTTGAT (site CCAGGTGCTCT) | 0.00956 |
| CCAGGTGCATGGACCGGTTTTCCCGGTAATCCGTATTTGAT (site CCAGGTGCTGT) | 0 |
| CCAGGTGCATGGACCGGTTTTCCCGGTAATCCGTATTTGAT (site CCAGGTGCTTT) | 0.206 |
| CCAGGTGCATGGACCGGTTTTCCCGGTAATCCGTATTTGAT (site CCAGGTTCTAT) | 0.204 |
| CCAGGTGCATGGACCGGTTTTCCCGGTAATCCGTATTTGAT (site CCAGTTGCTAT) | 0.00491 |
| CCAGGTGCATGGACCGGTTTTCCCGGTAATCCGTATTTGAT (site CCATGTGCTAT) | 0.018 |
| CCAGGTGCATGGACCGGTTTTCCCGGTAATCCGTATTTGAT (site CCCGGTGCTAT) | 0.433 |
| CCAGGTGCATGGACCGGTTTTCCCGGTAATCCGTATTTGAT (site CCGGGTGCTAT) | 1.47 |
| CCAGGTGCATGGACCGGTTTTCCCGGTAATCCGTATTTGAT (site CCTGGTGCTAT) | 0 |
| CCAGGTGCATGGACCGGTTTTCCCGGTAATCCGTATTTGAT (site CGAGGTGCTAT) | 0.0036 |
| CCAGGTGCATGGACCGGTTTTCCCGGTAATCCGTATTTGAT (site CTAGGTGCTAT) | 0.629 |
| CCAGGTGCATGGACCGGTTTTCCCGGTAATCCGTATTTGAT (site GCAGGTGCTAT) | 0.00654 |
| CCAGGTGCATGGACCGGTTTTCCCGGTAATCCGTATTTGAT (site TCAGGTGCTAT) | 0.0184 |
| CCATCATCATGGACCGGTTTTCCCGGTAATCCGTATTTGCT (site CAATCATCTAG) | 0 |
| CCATCATCATGGACCGGTTTTCCCGGTAATCCGTATTTGCT (site CCATCATCTAG) | 0 |
| CCATCATCATGGACCGGTTTTCCCGGTAATCCGTATTTGCT (site CGATCATCTAG) | 0 |
| CCATCATCATGGACCGGTTTTCCCGGTAATCCGTATTTGCT (site CTATCATCTAG) | 0.0047 |
| CCATCATCATGGACCGGTTTTCCCGGTAATCCGTATTTGTT (site CCATCATCTAA) | 0.00419 |
| CCATCATCATGGACCGGTTTTCCCGGTAATCCGTATTTGTT (site CGATCATCTAG) | 0 |
| CCATCGGCATGGACCGGTTTTCCCGGTAATCCGTATTTGTG (site CCATCGGCTCA) | 1.73 |
| CCATCTTCATGGACCGGTTTTCCCGGTAATCCGTATTTGCT (site CCATCTTCTAG) | 0.0559 |
| CCATCTTCATGGACCGGTTTTCCCGGTAATCCGTATTTGCT (site CGATCATCTAG) | 0 |
| CCATGACCATGGACCGGTTTTCCCGGTAATCCGTATTTGGA (site CCATGACCTTC) | 0.023 |
| CCATGCTCATGGACCGGTTTTCCCGGTAATCCGTATTTGAA (site CAATGCTCTTT) | 0.0121 |
| CCATGCTCATGGACCGGTTTTCCCGGTAATCCGTATTTGAA (site CCATGCTCTTT) | 0.703 |

Reference: the supplement of paper PMC11208160
